Laboratory results taken from patent US10548906B2, “Methods of promoting hepatic regeneration” (Intercept Pharmaceuticals, Inc., priority 2015, dated 2020).

How the values were obtained:
Fxr = experiment: qRT-PCR of proliferation-, Fxr- and bile acid homeostasis-related genes in liver and ileum of rBDL rats (Example 6); type: in vivo, rat
Protocol: Transcriptional analysis was performed [Olthof 2015]. Liver samples were homogenized with a MagNA Lyser and total RNA was extracted with the High Pure RNA Tissue Kit (both from Roche Applied Sciences, Penzberg, Germany). One μg of RNA was reverse transcribed to cDNA using the SensiFAST cDNA Synthesis Kit (Bioline, London, UK) according to manufacturer's instructions. Quantitative reverse transcriptase polymerase chain reaction was performed on a LightCycler 480 (Roche, Basel, Switzerland) using SensiFAST SYBR No-ROX mix (Bioline). Fluorescence data was processed and analyzed and normalized to hypoxanthine-guanine phosphoribosyltransferase (Hprt) for ileum samples, and the geometric mean of ubiquitin C (Ubc) and beta-2-microglobulin (B2m) for liver samples. […] Primers were designed using NCBI Primer Blast (http://www.ncbi.nlm.nih.gov/tools/primer-blast/) to span an intron or exon-exon junction and prevent amplification of residual genomic DNA (Table 2). Melting curve analysis and agarose gel electrophoresis were used to validate primer specificity.

Wistar rats [1] = experiment: Hepatobiliary injury markers and histology in rBDL rats before and after PHx (Example 6); type: in vivo, rat
Protocol: At baseline (i.e., directly before PHx) and one to five days after PHx, animals were euthanized under isoflurane anesthesia by exsanguination. Blood samples were collected from the caval vein in heparin-anticoagulated vacutainers (BD, Franklin Lakes, N.J.) and centrifuged for 10 min (3000×g, 4° C.). In rBDL animals sacrificed at baseline, bile was aspirated with a syringe from the dilated extrahepatic bile duct, weighed, and stored at −80° C. The liver and ileum were excised, weighed, loafed, and either fixed in a 10% (vol/vol) neutralized formalin solution (J. T. Baker, Center Valley, Pa.), snap-frozen in liquid nitrogen and stored at −80° C., or collected in RNAlater (Qiagen, Venlo, the Netherlands) and stored at −20° C. Liver regrowth was calculated from the regenerated liver mass, and was expressed as percentage of total liver mass prior to PHx. The projected remnant liver mass was calculated using the weight of the resected liver segments, which represent 70% of the total liver mass. Dry liver weights were measured to correct for hepatic water content [Kloek 2010a].
(§1) After formalin fixation, liver specimens were dehydrated, paraffin-embedded, and stained with hematoxylin and eosin (H&E), the collagen type I and III stain picrosirius red, or the proliferation marker Ki67 [Marsman 2013]. Semi-quantitative analysis of H&E- and picrosirius red-stained liver histology was performed by an experienced hepatopathologist (JV) blinded to the experimental groups using a scoring system detailed in Table 1. Ki67-positive hepatocyte nuclei were manually counted by two observers (RFG and PBO) in four randomly-selected microscopic fields at 200× magnification.

[2] = system: New Zealand White rabbits; experiment: Hepatobiliary scintigraphy, 99mTc-mebrofenin uptake after PVE (Example 5); type: in vivo, rabbit
Protocol: Liver function was assessed using hepatobiliary scintigraphy (HBS) with ^99mTc-labeled (2,4,6 trimethyl-3-bromo) iminodiacetic acid (^99mTc-mebrofenin, Bridatec, GE Healthcare, Eindhoven, the Netherlands) at days −7, −1, +3 and +7. Rabbits (n=6 per treatment group) were anesthetized and positioned on an imaging table with the liver and heart positioned under a large field-of-view single photon emission computed tomography (SPECT/CT) camera (Siemens Symbia T16). Regions of interest were drawn around the left ventricle for blood pool readings, around the entire liver for total liver uptake, and around the caudal liver lobe (FIG. 10; the yellow region of interest (ROI) delineates the left ventricle, the red ROI the total liver and the pink ROI the caudal liver lobe; a marked decrease in cranial liver lobe activity and increase in caudal liver lobe activity was seen following portal vein embolization.). Per rabbit, a dose of 50 MBq ^99mTc-mebrofenin was administered via a lateral ear vein directly before the start of acquisition.
The geometric mean dataset of the anterior and posterior cameras was used for analysis. Hepatic ^99mTc-mebrofenin uptake rate was calculated as an increase of ^99mTc-mebrofenin uptake over two minutes, corrected for perfusion. Total liver uptake was represented by the total hepatic ^99mTc-mebrofenin uptake rate, and calculated as a percentage of the injected dose per minute. The fractional ^99mTc-mebrofenin uptake rate was calculated for the caudal liver lobe, based of distribution of segmental activity and was corrected for baseline measurements at t=−7 days.

Wistar rats [3] = experiment: Liver growth in cholestatic (rBDL) rats prior to partial hepatectomy (Example 6); type: in vivo, rat; details: prior to PHx
From the text: After the acclimatization period, the rats either continued on a regular chow diet or were switched to a methionine and choline-deficient (MCD) diet (Harlan Teklad, Madison, Wis.) for 3 weeks to induce moderate hepatic steatosis [Heger 2011a]. At the start of the second diet week, the rats either underwent sham surgery or were subjected to reversible bile duct ligation (rBDL). For rBDL, the extrahepatic bile duct was cannulated with a polyethylene catheter (length=±1.5 cm, inner diameter=0.4 mm, outer diameter=0.9 mm, Braun, Melsungen, Germany) connected to Silastic Tubing with a closed distal tip (length=±7.5 cm, inner diameter=0.8 mm, outer diameter=1.4 mm, Dow Corning, Midland, Mich.) [Kloek 2008]. Sham-operated animals underwent abdominal surgery, including bile duct mobilization, without inducing a biliary obstruction. Groups of rBDL rats were left untreated or received a daily oral gavage of the FXR agonist obeticholic acid (OCA, 10 mg/kg in 0.5% methylcellulose, 1.5 mL per 300 g body weight) between 7:30 and 9:00 AM.
Seven days after BDL or sham operation, all rats were subjected to 70% PHx [DeGraaf 2011]. […]
At baseline (i.e., directly before PHx) and one to five days after PHx, animals were euthanized under isoflurane anesthesia by exsanguination. […] Liver regrowth was calculated from the regenerated liver mass, and was expressed as percentage of total liver mass prior to PHx. The projected remnant liver mass was calculated using the weight of the resected liver segments, which represent 70% of the total liver mass. Dry liver weights were measured to correct for hepatic water content [Kloek 2010a].
as §1, with “Ki67-positive hepatocyte nuclei were manually counted by two observers (RFG and PBO) in four randomly-selected microscopic fields at 200× magnification.” left out

[4] = system: New Zealand White rabbits; experiment: PVE-induced liver growth in rabbits, CT volumetry and body weight (Example 5)
Protocol: PVE of the cranial liver lobes was performed using polyvinyl alcohol particles and coils at day 0. Caudal liver volume (CLV) was analyzed by CT volumetry at days −7, −1, +3 and +7. Liver function (i.e. mebrofenin uptake) was quantified in subgroups of animals using hepatobiliary scintigraphy. Additional parameters analyzed were plasma transaminase levels, histological scoring of H&E- and Ki67-stained liver sections, and FXR target gene expression.
Six groups of six rabbits were planned for PVE. […] Treatment was started 7 days before PVE, and continued until sacrifice at 3 or 7 days after PVE.
Under digital subtraction portography a Renegade 3F microcatheter (Boston Scientific, Natick, Mass.) with a Transend-ex 0.36 mm×182-cm guide wire (Boston Scientific) was positioned in the main portal branch to the cranial liver lobes. Polyvinyl alcohol particles (90-180 μm and 300-500 μm in diameter, Cook, Bloomington, Ind.) and 2 fibered platinum coils (4.0 and 6.0 mm; Boston Scientific) were infused through the catheter to occlude the portal branches to the cranial lobes. PVE was confirmed by portography, and the mesenteric vein was closed using a ligature. The abdomen was closed in two layers. Baytril was administered daily for 3 days following PVE.
Multiphase CT-scans (Brilliance 64, Philips, Eindhoven, The Netherlands) were performed at day −7, −1, +3, and +7. Animals (n=18 per treatment group) were anesthetized and a 22G catheter was placed in the lateral ear vein. A baseline scan was made and 3 mL of contrast solution (Visipaque, GE Healthcara, Waukesha, Wis.) was injected. Arterial, portal and venous phase scans were made after 15, 30, 45 seconds respectively. Volumetric analysis was performed on 3D reconstruction of 5-mm axial slices using manual delineation. Caudal liver volume (CLV) and total liver volume (TLV) were determined and increase in CLV was determined using the following formula:
The same formula was used to calculate the decrease in cranial liver volume (CrLV; CrLV=TLV−CLV). Increase in CLV and decrease in CrLV was calculated using day −1 values as baseline. […] Regeneration rate was calculated using the formula:

[5] = prior to PHx, vs untreated rBDL
[6] = prior to PHx, vs control and untreated rBDL

CC[C@H]1[C@@H](O)[C@@H]2[C@H](CC[C@]3(C)[C@@H]([C@H](C)CCC(=O)O)CC[C@@H]23)[C@@]2(C)CC[C@@H](O)C[C@@H]12 [Compound 1, 3α,7α-dihydroxy-6α-ethyl-5β-cholanic acid]
hepatic Bsep expression, upregulation (Fxr; baseline): ~8 fold | hepatic Mrp4 expression (Fxr; baseline): upregulated | hepatic Ntcp expression (Fxr; baseline): mildly upregulated | hepatic Ostβ expression (Fxr; baseline): upregulated | hepatocyte Cyp7a1 mRNA level (Fxr; baseline): did not alter | hepatocyte Shp mRNA level (Fxr; baseline): did not alter | hepatic Mrp3 expression (Fxr; baseline, vs untreated rBDL): more robust induction | liver Fxr mRNA (Fxr; day 1 post-PHx): slight decrease | hepatic Foxm1 expression (Fxr; during liver regeneration after PHx): did not change | hepatic Shp transcript levels relative to untreated rBDL and control rats (Fxr; first two days after PHx): high transcript levels | hepatic Fgfr4 transcript level (Fxr; prior to / on the day of PHx, listed as OCA): markedly downregulated | hepatic Stat3 expression (Fxr; prior to PHx): considerably upregulated | ileal Fxr expression (Fxr; prior to PHx): minor downregulation | ileal Shp expression (Fxr; prior to PHx): marked upregulation | ileal Fgf15 transcription, upregulation (Fxr; prior to PHx, rBDL rats): ~20 fold | hepatic expression of Foxm1 (Fxr; [5]): comparable | hepatic expression of Fxr (Fxr; [5]): comparable | hepatic expression of Ccnd1 (CyclinD1) (Fxr; prior to PHx, vs untreated rBDL or non-cholestatic animals): more pronounced | hepatic Fgfr4 expression (Fxr; regrowth phase after PHx): remained low | bilirubin clearance (Wistar rats [1]; after PHx): lagged marginally | decline of ALP levels (Wistar rats [1]; after PHx): ~4 fold | time to normalization of hepatobiliary injury markers (Wistar rats [1]; after PHx, rBDL groups, recovery more gradual with OCA): ≤ 48 h | ALP levels vs other study arms (Wistar rats [1]; during regeneration): remained higher | liver injury after hepatectomy (Wistar rats [1]; histology day 5 after PHx): did not exacerbate liver injury after hepatectomy | plasma gamma glutamyltransferase (Wistar rats [1]; prior to PHx): followed the same dynamics as ALP | plasma alanine aminotransferase (ALT) (Wistar rats [1]; [6]): considerably higher | plasma alkaline phosphatase (ALP) (Wistar rats [1]; [6]): considerably higher | increase in contribution of caudal liver lobe (CLF share) to total liver mebrofenin uptake ([2]; 3 days after PVE): 44.5±5.4% | increase in caudal liver function relative to vehicle ([2]; day +3): 1.2 fold | total liver uptake of mebrofenin ([2]; days −1, +3, +7, N=6): remained stable in both groups | liver mass corrected for hepatic water content (dry weight) (Wistar rats [3]; 7 days rBDL): increased liver mass | gross liver mass vs control group (Wistar rats [3]; 7 days rBDL, 10 mg/kg daily oral): higher | hepatocyte proliferation measured by Ki67 staining (Wistar rats [3]; vs untreated rBDL or non-cholestatic animals): more pronounced | increase of CLV relative to vehicle controls ([4]; 3 days after PVE): 2.2 fold | increase in caudal liver volume (CLV) ([4]; 3 days after PVE, relative to day −1, N=17): 56.1±20.3% | increase of CLV relative to vehicle controls ([4]; day 7 after PVE): 1.5 fold | increase in caudal liver volume (CLV) ([4]; day 7 after PVE, relative to day −1, N=11): 102.0±38.2% | total liver volume (TLV) corrected for body weight ([4]; pre-treatment period day −7 until day −1, 10 mg/kg daily oral): did not induce spontaneous liver growth | body weight decrease after PVE ([4]; vs vehicle): to a similar extent
